According to paper PMC8765310, “Metabolism, Excretion, and Mass Balance of [^14C]-Rezafungin in Animals and Humans” (Antimicrobial Agents and Chemotherapy, 2022):
*1 amine or outer side, *2 acyl side, *3 side chain or, on linkers, in order; H or OH if unused. Where a SMILES comes first, the peptide text is derived from it. Bridges are numbered along the chain shown (N, C = ends). [ ]: non-standard residue; d: D form. The star is where a group is joined. Orn(4R-OH,5R-OCH2CH2NMe3+) = C[N+](C)(C)CCO[C@@H](N[*:3])[C@H](O)C[C@H](N[*:1])C(=O)[*:2]; pTerphenylCO(4''-OnC5H11) = CCCCCOc1ccc(-c2ccc(-c3ccc(C(=O)*)cc3)cc2)cc1; hTyr(3S-OH,4S-OH) = N[C@H](C(=O)O)[C@H](O)[C@@H](O)c1ccc(O)cc1; Pro(3S-OH,4S-Me) = C[C@H]1CN[C@H](C(=O)O)[C@H]1O; Hyp = O=C(O)[C@@H]1C[C@@H](O)CN1

What was measured:
[1] = Human excretion/mass balance of [14C]-rezafungin; type: in vivo
Experimental: (§1) (i) Study design. This was an open-label, phase I, single-dose mass balance study. The study was conducted at Labcorp (formerly, Covance, Inc.; Madison, WI) in accordance with good clinical practice, including ICH guidelines and applicable regulatory requirements, and in general conformity with the Declaration of Helsinki. No animal work was conducted by Labcorp. All pertinent study documents were reviewed by the Institutional Review Board (IRB) prior to study initiation. Following IRB approval and collection of written informed consent, all the subjects underwent an initial screening assessment within 28 days of the first dose. Safety was assessed by vital signs, physical examinations, AE assessments, laboratory tests (chemistry, hematology, and urinalysis), and a 12-lead electrocardiogram.
(§2) Subjects were initially confined in the clinical research unit (CRU) for 17 days postdose and returned for two follow-up visits (days 29 and 60). Recovery of radioactivity was estimated by linear interpolation during the period of time subjects were away from the CRU. Blood samples, urine, and feces were collected at specified times over 60 days.
(§3) (ii) Sample analysis. Whole blood, plasma, urine, and fecal homogenate samples were mixed with scintillation fluid and analyzed by liquid scintillation counting. For non-radiolabeled rezafungin concentration determination, a bioanalytical method was validated for measuring rezafungin in human plasma that is similar to one previously reported for animal plasma ([16]). Samples were analyzed using a 100 μl aliquot volume and a protein-precipitation extraction procedure followed by liquid chromatography/tandem mass spectrometry (LC-MS/MS) analysis. Chromatography was carried out on a Waters Atlantis HPLC column (dC18, 2.1 × 50 mm, 5 μm) operating under reverse-phase gradient conditions (0.1% formic acid in water/0.1% formic acid in acetonitrile/tetrahydrofuran ramped from 55%/45%/0% to 5%/0%/95%). Rezafungin calibration range was 10.0 ng/ml to 10,000 ng/ml using isotopically-labeled d9-rezafungin as an internal standard. An AB-Sciex API 4000 mass spectrometer was operated in the multiple reaction monitoring mode (parent-to-product ion transition) under optimized conditions for detection of rezafungin (m/z 604.5 to 343.3 Da) and d9-rezafungin (m/z 609.5 to 343.3 Da) positive ions formed by electrospray ionization. Excellent intra- and inter-assay accuracy and precision, as measured by quality control (QC) samples, was obtained during validation. Across the range of QC samples tested (lower limit of quantitation, LLOQ, through the High QC range), the intra-assay accuracy (% bias from nominal) ranged from −1.4% to 7.0% with the intra-assay precision (% coefficient of variation) ranging from 1.6% to 7.4%. Inter-assay accuracy ranged from 0.3% to 4.3% with the inter-assay precision ranging from 2.7% to 5%.

[2] = Human clinical pharmacokinetics (plasma rezafungin, plasma and whole blood total radioactivity); type: in vivo
Experimental: as §1, §2, §3
(iv) Metabolite profiling. Plasma samples were pooled across subjects through 672 h postdose to produce inter-subject time point pools. Urine and fecal homogenate samples were pooled by subject across various time points up through 408 and 672 h postdose, respectively. Selected samples of plasma, urine, and feces were profiled for rezafungin and metabolites by HPLC with radiochemical and high-resolution mass spectrometry detection; metabolites were identified by HPLC with known standards and/or by HPLC-MS/MS structure elucidation. Pharmacokinetics were calculated by non-compartmental analysis using Phoenix WinNonlin software (version 6.3/8.1; Pharsight, Mountain View, CA).

[3] = of the estimated total through day 60
[4] = single 400-mg IV infusion, LSC, mean (SD)
[5] = single 400-mg IV infusion, mean (SD)
[6] = single 400-mg IV infusion, median (min, max)

CCCCCOc1ccc(-c2ccc(-c3ccc(C(=O)N[C@H]4C[C@@H](O)[C@@H](OCC[N+](C)(C)C)NC(=O)[C@@H]5[C@@H](O)[C@@H](C)CN5C(=O)[C@H]([C@@H](C)O)NC(=O)[C@H]([C@H](O)[C@@H](O)c5ccc(O)cc5)NC(=O)[C@@H]5C[C@@H](O)CN5C(=O)[C@H]([C@@H](C)O)NC4=O)cc3)cc2)cc1 [rezafungin] ({pTerphenylCO(4''-OnC5H11)}-[Orn(4R-OH,5R-OCH2CH2NMe3+)]T[Hyp][hTyr(3S-OH,4S-OH)]T[Pro(3S-OH,4S-Me)]; lactam 1-C)
Share of the total recovered radioactivity found in feces [1, 3]: Approximately 73% | Share of the total recovered radioactivity found in urine [1, 3]: 27% | Cumulative recovery of radioactivity from excreta ([1]; single 400-mg IV infusion, through the first 17 days (in-clinic), LSC, mean): 52% | Estimated mean overall recovery of the dose ([1]; through day 60, linear interpolation with day 29 and day 60 visits): 88.3% | Cumulative recovery of radioactivity in feces ([1]; through the first 17 days): 38% | Cumulative recovery of radioactivity in urine ([1]; through the first 17 days): 14% | Cmax ([2]; male, plasma, single 400-mg IV infusion, LC-MS/MS, mean (SD), SD): 18900 ng/mL | AUC(0-inf) ([2]; male, plasma, single 400-mg IV infusion, LC-MS/MS, mean (SD), SD, read-out: AUC0-∞, plasma rezafungin): 2110 µg·h/mL | Vd ([2]; male, plasma, single 400-mg IV infusion, apparent volume of distribution, terminal phase, mean (SD), SD, read-out: VZ, plasma rezafungin): 88.6 L | Tmax ([2]; male, plasma, single 400-mg IV infusion, median (min, max)): 1 h | half-life ([2]; male, plasma, single 400-mg IV infusion, terminal elimination half-life, mean (SD), SD, read-out: t½, plasma rezafungin (converted)): 341 h | AUC(0-t) ([2]; plasma, 9 healthy male subjects, single 400-mg IV infusion (200 μCi), LC-MS/MS, arithmetic mean (SD), SD, read-out: AUC0-t, plasma rezafungin): 2050 µg·h/mL | AUC0-t, plasma total radioactivity ([2]; single 400-mg IV infusion (200 μCi), LSC, mean (SD)): 2600 (163) μg equivalent×hour/ml | AUC0-t, whole blood total radioactivity [2, 4]: 2390 (175) μg equivalent×hour/ml | AUC0-∞, plasma total radioactivity [2, 4]: 2750 (182) μg equivalent×hour/ml | AUC0-∞, whole blood total radioactivity [2, 4]: 2450 (200) μg equivalent×hour/ml | Cmax, plasma total radioactivity [2, 4]: 18.2 (2.28) μg/ml | Cmax, whole blood total radioactivity [2, 4]: 18.5 (2.24) μg/ml | t½, plasma total radioactivity [2, 5]: 387 (44.8) hours | t½, whole blood total radioactivity [2, 5]: 408 (39.7) hours | tmax, plasma total radioactivity [2, 6]: 1.00 (1.00, 1.00) hours | tmax, whole blood total radioactivity [2, 6]: 1.00 (1.00, 1.00) hours
